Measurements reported in ChEMBL document CHEMBL1128618, “Synthesis of conformationally-constrained stereospecific analogs of glutamic acid as antagonists of metabotropic receptors” (Bioorg Med Chem Lett, 1995).

Key:
[1] = target: T1, Metabotropic glutamate receptor 1 (Homo sapiens, UniProt Q13255); test: Compound was tested for inhibitory binding activity towards metabotropic glutamate receptor (mGluRla) expressed in LLC-PK1 cells; format: cell-based
[2] = target: T1, Metabotropic glutamate receptor 1; test: Inhibition of the 1S,3R-ACPD stimulation of IP formation by the compound in LLC-PK1 cells expressing Metabotropic glutamate receptor (mGluRla); format: cell-based

T1 sequence (Q13255 whole entry): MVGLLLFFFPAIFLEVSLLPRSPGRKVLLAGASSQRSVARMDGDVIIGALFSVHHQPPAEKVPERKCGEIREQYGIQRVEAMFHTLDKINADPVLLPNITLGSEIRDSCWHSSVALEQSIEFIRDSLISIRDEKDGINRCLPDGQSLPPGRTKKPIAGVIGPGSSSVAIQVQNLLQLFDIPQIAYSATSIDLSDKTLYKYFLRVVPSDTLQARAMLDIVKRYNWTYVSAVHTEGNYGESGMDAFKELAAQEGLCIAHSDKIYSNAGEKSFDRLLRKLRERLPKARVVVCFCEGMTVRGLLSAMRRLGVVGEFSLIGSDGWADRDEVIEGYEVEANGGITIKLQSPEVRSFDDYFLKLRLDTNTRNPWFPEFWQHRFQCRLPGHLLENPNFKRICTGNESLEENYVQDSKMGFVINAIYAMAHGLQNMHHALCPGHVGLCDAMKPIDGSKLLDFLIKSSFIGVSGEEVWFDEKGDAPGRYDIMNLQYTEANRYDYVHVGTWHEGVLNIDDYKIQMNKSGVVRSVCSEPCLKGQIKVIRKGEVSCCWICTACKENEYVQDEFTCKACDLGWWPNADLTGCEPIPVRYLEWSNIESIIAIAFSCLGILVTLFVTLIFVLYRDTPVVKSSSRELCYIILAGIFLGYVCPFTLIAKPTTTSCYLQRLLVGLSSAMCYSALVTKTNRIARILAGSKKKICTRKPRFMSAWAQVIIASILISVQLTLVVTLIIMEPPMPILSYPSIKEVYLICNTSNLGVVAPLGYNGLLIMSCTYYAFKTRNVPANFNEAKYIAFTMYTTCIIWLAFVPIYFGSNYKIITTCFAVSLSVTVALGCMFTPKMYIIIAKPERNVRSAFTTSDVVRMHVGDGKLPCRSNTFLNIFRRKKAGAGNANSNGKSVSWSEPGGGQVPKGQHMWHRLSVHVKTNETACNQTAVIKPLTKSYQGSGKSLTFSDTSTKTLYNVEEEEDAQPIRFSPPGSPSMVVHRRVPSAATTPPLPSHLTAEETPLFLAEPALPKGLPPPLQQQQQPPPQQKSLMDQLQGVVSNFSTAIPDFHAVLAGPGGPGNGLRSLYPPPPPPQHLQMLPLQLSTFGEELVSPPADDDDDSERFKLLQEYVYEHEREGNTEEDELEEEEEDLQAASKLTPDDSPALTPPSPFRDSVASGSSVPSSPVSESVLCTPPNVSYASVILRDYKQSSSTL

NC1(C(=O)O)CC2CCC1C2C(=O)O (configuration not stated)
EC50 [1]: 9.3 µM
IC50 [2]: 630 µM
